One test concerns circulating leukocytes. Description: Blood count values in LPS rat models. Format: in vivo. The conditions noted are these: day 28. As to the method:
(§1) On the 1st day of the experiment, rats were either operated to model hemi-parkinsonism or sham operated. From the 9th to the 18th day of the experiment, the animals were injected either deuterium-depleted water or the test substance, according to their allocation into groups, for 10 days. On the 8th day of the experiment (before initiation of treatment—apomorphine test I) and on the 21st day of the experiment (after the end of administering the test substance —apomorphine test II) the animals underwent an apomorphine test to analyze the development of hemi-parkinsonism which correlates with the number of destroyed dopaminergic neurons. In addition, a follow-up analysis of fecal water content was carried out, i.e., before the start of treatment on the 8th day after the operation, as well as on the 21st (after the end of treatment) and the 28th day (before autopsy). On the 24th day of the experiment, behavioral tests were carried out in all groups. All animals were weighed before autopsy. […]
The blood count values were analyzed at the completion of the experiment (day 28). The absolute number of leukocytes, as well as the absolute and relative numbers of lymphocytes, monocytes and neutrophilic granulocytes were calculated.

A further test has as its system peritoneal macrophages. The test can be described thus: Functional and phenotypic properties of peritoneal phagocytes in LPS rat models. Format: in vivo. The conditions noted are these: animal models of PD. As to the method:
as §1
(§2) To assess the anti-inflammatory and immunomodulating effects of the test substance, microglia and peritoneal macrophages were isolated. Phenotypic and functional features of peripheral blood phagocytes were evaluated without their fractioning (using whole blood). […]
(§3) Phagocytic activity of microglia, peritoneal macrophages and peripheral blood phagocytes was analyzed on a flow cytometer using FITC-labeled S. aureus Wood 46 cells as an object of phagocytosis. […]
(§4) Oxidative metabolism of phagocytes of various localization was analyzed by flow cytometry using the cell-permeant 2′7′-dichlorodihydrofluorescein-diacetate (DHP) (carboxy-H2DCFDA, Invitrogen, USA) which is converted by intracellular esterases to the nonfluorescent membrane-impermeable carboxy-H2DCF form.
(§5) The phenotypic profile of phagocytes of various localization was characterized by the expression of markers of functional maturity and metabolic polarization (CD206, CD80 and CD86), which was determined by flow cytometry and the use of monoclonal antibodies of appropriate specificity marked with fluorescent dyes (Abcam, Becton Dickinson).

The subject of test [1] is rat peripheral blood neutrophils. Description: Metabolic profile of nonsensitized rat peripheral blood neutrophils in vitro. Type of test: cell-based. Here is the method: Materials and methods: Rat microglial cells were isolated by mechanical (cell sieves) disintegration of the brain tissue (FIG. 30A, FIG. 30B and FIG. 30C) followed by fractionation of the tissue homogenate in Percoll density gradient (Microglia: Methods and Protocols, Edited by Bertrand Josef and Jose Luis Venero, Springer protocol. Humana Press, 2013, 350 p.) (FIG. 31). Before the collection of the brain tissue, decapitation was performed to avoid hemorrhage to the brain during sampling (FIG. 32). Decapitation was performed immediately after anesthesia to minimize the death of brain tissue, including microglial cells. All manipulations for the isolation of microglial cells were carried out using coolants. Circulating neutrophils were isolated from venous blood taken into a tube containing EDTA in a two-step Percoll gradient (Alsharif K F et al. Vascul Pharmacol. 2015 August; 71:201-7. doi: 10.1016/j.vph.2015.02.006)(FIG. 33A and FIG. 33B). Circulating monocytes were isolated from venous blood collected into a tube containing heparin in a two-step Hypaque gradient (Macrophages and dendritic cells: Methods and Protocols, Edited by Neil E. Reiner, NY, Humana Press, 2009: 368 P). The metabolic profile of phagocytes was characterized based on the pathway of arginine metabolism (levels of arginase activity and NO synthesis measured using photocolorimetric methods), the level of formation of intracellular reactive oxygen species (ROS) by esterases and the indices of phagocytic activity determined by flow cytofluorimetry, as well as according to the activation levels of NADH and NADPH oxidases determined in NBT test. Duration of treatment of phagocytes of all the above mentioned populations varied depending on the methodological characteristics of metabolic response. A 90 minute exposure to the drugs according to Kim et al., 1977 (cited above) was used to analyze their effects on oxidative metabolism and phagocytic activity. An 18 hour exposure according to Lastra et al., 2001 (cited above) was used to analyze the drug effects on arginine metabolic pathway. To analyze the effects of the drugs under study on the induced (stimulated) metabolic activity of phagocytes, the cells were treated with lipopolysaccharide (LPS) from E. coli (Sigma, USA) according to Haddad et al., 2009 (cited above).

The test system of a further test is microglia. The test can be described thus: Functional and phenotypic properties of microglia in LPS rat models. Format: in vivo. To be noted: LPS animal models of PD. As to the method:
On the 1st day of the experiment, rats were either operated to model hemi-parkinsonism or sham operated. From the 9th to the 18th day of the experiment, the animals were injected either deuterium-depleted water or the test substance, according to their allocation into groups, for 10 days. On the 8th day of the experiment (before initiation of treatment—apomorphine test I) and on the 21st day of the experiment (after the end of administering the test substance —apomorphine test II) the animals underwent an apomorphine test to analyze the development of hemi-parkinsonism which correlates with the number of destroyed dopaminergic neurons. In addition, a follow-up analysis of fecal water content was carried out, i.e., before the start of treatment on the 8th day after the operation, as well as on the 21st (after the end of treatment) and the 28th day (before autopsy). On the 24th day of the experiment, behavioral tests were carried out in all groups. All animals were weighed before autopsy. During autopsy, ⅔ of animals from each group were sacrificed by cervical dislocation and brain and blood samples were collected for further biochemical and immunological tests. ⅓ of the animals were used for further immunohistochemical studies of the brain; for this purpose, under anesthesia, a procedure of fast, controlled and uniform fixation of the whole body of the animal was performed using 4% paraformaldehyde perfused through the heart of the rat to obtain the best preservation of the brain architecture for immunohistochemistry. Gage G J, et al., J Vis Exp. 2012 Jul. 30; (65).
as §2, §3, §4, §5

For “^64Zn-enriched zinc aspartate [^64Zne-asp]”, the “absolute number of circulating leukocytes” value in the test with circulating leukocytes is on record as “did not influence”. Moreover, in the test with peritoneal macrophages, the “expression of all phenotypic markers in peritoneal macrophages” value is given as “significant increase”, the “oxidative metabolism of the peritoneal exudate cells” value was “decrease” and the “phagocytic activity of the peritoneal exudate cells” value was “activation”. In test [1], the “arginase activity of resting and bacterial LPS-treated neutrophils” value was “remained practically unchanged”; the “esterase-dependent oxidative metabolism in neutrophils treated with bacterial LPS” value is on record as “sharp decrease”; the “intracellular ROS production by nonsensitized neutrophils” value is on record as “sharp decrease”; the “phagocytic activity of neutrophils” value is “No statistically significant effect”. Further, in test [1], the “synthesis of reactive nitrogen species by neutrophils after treatment with LPS” value is reported as “moderately negative effect” and the “synthesis of reactive nitrogen species by resting neutrophils” value is reported as “no significant effect”. In addition, the “ROS production dependent on NADH and NADPH oxidases (NBT test) in neutrophils” value in test [1] (irrespective of treatment with bacterial LPS) is reported as “strong negative effect”. Also, in the test on microglia, the “expression of CD86 by microglia” value is listed as “significant increase”, the “expression of CD206 by microglia” value is recorded as “increased expression”, the “oxidative metabolism of microglia” value is “slightly but statistically significantly increased” and the “phagocytic activity of microglia” value is given as “sharp increase”.
